Tests used:
recombinant human PGHS-2 = target: T1, recombinant human PGHS-2 (Homo sapiens, UniProt P35354); test: Recombinant human PGHS-2 enzyme assay (PGE2 by EIA); format: biochemical; details: for inhibition at 0.1 µM: 100 nM compound, microsomes, 60 min preincubation, 10 μM arachidonic acid, read-out: RHuPGHS-2 (% I @ 100 nM)
T1 construct: made in house; host or cells: baculovirus/Sf9 insect cells (microsomes)
T1 sequence (P35354 18-604): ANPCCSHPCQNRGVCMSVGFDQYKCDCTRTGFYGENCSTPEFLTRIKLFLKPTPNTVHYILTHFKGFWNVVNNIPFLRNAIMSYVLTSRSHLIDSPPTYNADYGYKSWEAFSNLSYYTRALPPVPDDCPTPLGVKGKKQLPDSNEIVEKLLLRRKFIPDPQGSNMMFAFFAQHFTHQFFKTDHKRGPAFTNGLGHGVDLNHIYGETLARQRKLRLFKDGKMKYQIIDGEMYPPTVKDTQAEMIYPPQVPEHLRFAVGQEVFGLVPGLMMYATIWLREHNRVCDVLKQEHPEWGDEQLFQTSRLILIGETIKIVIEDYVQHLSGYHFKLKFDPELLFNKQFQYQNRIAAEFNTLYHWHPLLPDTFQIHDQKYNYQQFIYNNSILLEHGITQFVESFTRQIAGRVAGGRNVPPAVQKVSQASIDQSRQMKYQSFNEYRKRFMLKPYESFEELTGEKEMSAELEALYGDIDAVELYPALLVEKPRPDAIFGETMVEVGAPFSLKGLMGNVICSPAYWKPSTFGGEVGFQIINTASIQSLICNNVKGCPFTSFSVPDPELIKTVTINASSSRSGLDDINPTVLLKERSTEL
Description: (§1) A compound of the invention dissolved in DMSO (3.3% v/v) was preincubated with microsomes from recombinant human PGHS-1 or PGHS-2 expressed in the baculovirus/Sf9 cell system (Gierse, J. K., Hauser, S. D., Greely, D. P., Koboldt, C., Rangwala, S., H., Isakson, P. C., and Seibert, K. "Expression and selective inhibition of the constitutive and inducible forms of cyclooxygenase", Biochem J. 305:479 (1995)), together with the cofactors phenol (2 mM) and hematin (1 μM) for 60 minutes prior to the addition of 10 μM arachidonic acid. The reaction was allowed to run for 2.5 minutes at room temperature prior to quenching with HCl and neutralization with NaOH. PGE2 production in the presence and absence of the drug was determined by EIA analysis.
(§2) EIA reagents for prostaglandin determination were purchased from Perseptive Diagnostics, Cambridge, Mass. PGE2 levels in lavage fluids were determined after the samples were dried under nitrogen and reconstituted with assay buffer. PGE2 levels in enzyme assays or cell culture media were measured against standards prepared in the same milieu. The immunoassays were conducted as recommended by the manufacturer. The EIA was conducted in 96 well microtiter plates (Nunc Roskilde, Denmark) and optical density measured using a microplate reader (Vmax, Molecular Devices Corp., Menlo Park, Calif.).

recombinant human PGHS-1 = target: T2, recombinant human PGHS-1 (Homo sapiens, UniProt P23219); test: Recombinant human PGHS-1 enzyme assay (PGE2 by EIA); format: biochemical; details: 100 μM compound; microsomes, 60 min preincubation, 10 μM arachidonic acid; read-out: RHuPGHS-1 (% I @ 100μM)
T2 construct: made in house; host or cells: baculovirus/Sf9 insect cells (microsomes)
Description: as §1, §2

[1] = system: prostaglandin production in the pleural cavity; test: Carrageenan induced pleurisy test (CIP); format: in vivo, Sprague-Dawley rats; details: rats, 10 mg/kg oral, 30 minutes prior to intrapleural carrageenan; lavage four hours after
Description: as §2
Inhibition of carrageenan induced pleurisy in rats was determined essentially as described by F. B. De Brito, (Pleurisy and Pouch Models of Acute Inflammation in Pharmalogical Methods in the Control of Inflammation, Eds, J. Y. Chang and A. J. Lewis, Alan Liss Inc., New York: 173-194, 1989) and Vinegar et al. ("Quantitative studies of the pathway to acute carrageenan inflammation", Fed. Proc., 35:2447-2456 (1976)). Briefly, eight Sprague-Dawley rats were orally dosed with 10 mg/kg of a compound of the invention 30 minutes prior to intrapleural injection of 2% lambda carrageenan (Sigma Chemical Co., St. Louis Mo.). Four hours after carrageenan injection, the animals were euthanized and their pleural cavities lavaged with ice cold saline. The lavage fluid was then added to two volumes of ice cold methanol (final methanol concentration 66%) to lyse cells and precipitate protein. Prostaglandin levels in the methanol/lavage fluid were then determined by EIA.

T2 sequence (P23219 24-599): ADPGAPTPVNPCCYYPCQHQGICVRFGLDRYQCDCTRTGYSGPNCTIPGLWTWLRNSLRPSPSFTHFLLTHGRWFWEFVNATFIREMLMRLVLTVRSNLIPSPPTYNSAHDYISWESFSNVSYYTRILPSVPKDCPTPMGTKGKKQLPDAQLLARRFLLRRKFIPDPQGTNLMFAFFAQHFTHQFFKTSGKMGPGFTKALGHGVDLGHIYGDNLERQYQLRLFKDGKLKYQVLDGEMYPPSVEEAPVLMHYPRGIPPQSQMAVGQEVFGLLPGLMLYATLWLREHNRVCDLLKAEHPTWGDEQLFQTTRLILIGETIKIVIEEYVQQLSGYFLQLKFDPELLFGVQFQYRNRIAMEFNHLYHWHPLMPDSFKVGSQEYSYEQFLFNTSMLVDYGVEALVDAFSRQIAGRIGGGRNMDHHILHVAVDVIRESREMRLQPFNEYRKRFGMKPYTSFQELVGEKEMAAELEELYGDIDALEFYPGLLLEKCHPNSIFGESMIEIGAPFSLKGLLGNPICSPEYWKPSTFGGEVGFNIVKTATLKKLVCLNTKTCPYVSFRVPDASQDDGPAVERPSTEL

| Compound | inhibition at 0.1 µM (recombinant human PGHS-2) [%] | inhibition at 100 µM (recombinant human PGHS-1) [%] | inhibitory potency against recombinant human PGHS-2 (in words) (recombinant human PGHS-2) | inhibition of prostaglandin production in the pleural cavity [1] [%] |
| --- | --- | --- | --- | --- |
| CS(=O)(=O)Nc1ccc([N+](=O)[O-])cc1Oc1ccc2ccccc2c1 [Example 1, N(4-Nitro-2-(naphth-2'-yloxy)phenyl)methanesulfonamide] | 65 | 47 | – | – |
| CS(=O)(=O)Nc1ccc([N+](=O)[O-])cc1Oc1ccc2c(c1)OCO2 [Example 5, N-(4-Nitro-2-(1,3-benzodioxol-6-yloxy)phenyl)methanesulfonamide] | 77 | 89 | most potent | 36 |

Second part, led by results:

| inhibition at 0.1 µM (recombinant human PGHS-2) [%] | inhibition at 100 µM (recombinant human PGHS-1) [%] | inhibitory potency against recombinant human PGHS-2 (in words) (recombinant human PGHS-2) | Compound | inhibition of prostaglandin production in the pleural cavity [1] [%] |
| --- | --- | --- | --- | --- |
| 56 | 26 | – | CS(=O)(=O)Nc1ccc([N+](=O)[O-])cc1Oc1ccc2cc(F)ccc2c1 [Example 2, N-(4-Nitro-2-(6'-fluoro-naphth-2'-yloxy)phenyl)methanesulfonamide] | 20 |
| 59 | 89 | – | CS(=O)(=O)Nc1ccc([N+](=O)[O-])cc1Oc1ccc2sccc2c1 [Example 3, N-(4-Nitro-2-(benzothiophen-5'-yloxy)phenyl)methanesulfonamide] | 48 |
| 43 | 31 | – | CS(=O)(=O)Nc1ccc([N+](=O)[O-])cc1Oc1ccc2ncsc2c1 [Example 4] | 66 |

Source: patent publication US5681842A, “Prostaglandin synthase-2 inhibitors” (Abbott Laboratories, priority 1996, dated 1997)
